Test results taken from patent publication US20230312578A1, “6H-INDOLO[2,3-B]QUINOXALINE DERIVATIVES USEFUL IN THERAPY” (Vironova Medical AB, priority 2020, published 2023).
Where two headings read alike, the source gives them in different places.

Tests used:
Type in all cases: cell-based
OVCAR-8 = experiment: Human tumor cell line growth assay (SRB); conditions: Ovarian, OVCAR-8, 48 h
[1] = Human tumor cell line growth assay (SRB); conditions: human, U251 cells (CNS), U251, 48 h, read-out: LC50
U251 = experiment: Human tumor cell line growth assay (SRB); conditions: Homo sapiens, U-251; CNS, U251, 48 h
HT29 = experiment: Human tumor cell line growth assay (SRB); conditions: Homo sapiens, HT-29; Colon, HT29, 48 h
[2] = Human tumor cell line growth assay (SRB); conditions: human, HT29 cells (colon), HT29, 48 h, read-out: LC50
[3] = Human tumor cell line growth assay (SRB); conditions: human, SW-620 cells (colon), SW-620, 48 h
SW-620 = experiment: Human tumor cell line growth assay (SRB); conditions: Homo sapiens; Colon, SW-620, 48 h
[4] = Human tumor cell line growth assay (SRB); conditions: human, MOLT-4 cells (leukemia), MOLT-4, 48 h, read-out: LC50
MOLT-4 = experiment: Human tumor cell line growth assay (SRB); conditions: Homo sapiens; Leukemia, MOLT-4, 48 h
NCI/ADR-RES = experiment: Human tumor cell line growth assay (SRB); conditions: Ovarian, 48 h
[5] = Human tumor cell line growth assay (SRB); conditions: human, SNB-75 cells (CNS), SNB-75, 48 h
SNB-75 = experiment: Human tumor cell line growth assay (SRB); conditions: Homo sapiens; CNS, SNB-75, 48 h
[6] = Human tumor cell line growth assay (SRB); conditions: human, SK-MEL-28 cells (melanoma), SK-MEL-28, 48 h, read-out: LC50
SK-MEL-28 = experiment: Human tumor cell line growth assay (SRB); conditions: Homo sapiens; Melanoma, SK-MEL-28, 48 h
A549/ATCC = experiment: Human tumor cell line growth assay (SRB); conditions: Homo sapiens, NSCLC, 48 h
[7] = Human tumor cell line growth assay (SRB); conditions: human, A549/ATCC cells (NSCLC), read-out: LC50
K-562 = experiment: Human tumor cell line growth assay (SRB); conditions: K562, Leukemia, K-562, 48 h
[8] = Human tumor cell line growth assay (SRB); conditions: human, NCI-H23 cells (NSCLC), NCI-H23, 48 h, read-out: LC50
NCI-H23 = experiment: Human tumor cell line growth assay (SRB); conditions: Homo sapiens; NSCLC, NCI-H23, 48 h
[9] = Human tumor cell line growth assay (SRB); conditions: human, SK-MEL-2 cells (melanoma), SK-MEL-2, 48 h, read-out: LC50
SK-MEL-2 = experiment: Human tumor cell line growth assay (SRB); conditions: Homo sapiens; Melanoma, SK-MEL-2, 48 h
CCRF-CEM = experiment: Human tumor cell line growth assay (SRB); conditions: Leukemia, 48 h
[10] = Human tumor cell line growth assay (SRB); conditions: human, OVCAR-5 cells (ovarian), OVCAR-5, 48 h, read-out: LC50
OVCAR-5 = experiment: Human tumor cell line growth assay (SRB); conditions: Homo sapiens; Ovarian, OVCAR-5, 48 h
KM12 = experiment: Human tumor cell line growth assay (SRB); conditions: Homo sapiens; Colon, KM12, 48 h
[11] = Human tumor cell line growth assay (SRB); conditions: human, KM12 cells (colon), KM12, 48 h, read-out: LC50
[12] = Human tumor cell line growth assay (SRB); conditions: human, MALME-3M cells (melanoma), read-out: LC50
MALME-3M = experiment: Human tumor cell line growth assay (SRB); conditions: Homo sapiens, Melanoma, 48 h
A498 = experiment: Human tumor cell line growth assay (SRB); conditions: Renal, A498, 48 h
[13] = Human tumor cell line growth assay (SRB); conditions: human, HCT-15 cells (colon), HCT-15, 48 h
HCT-15 = experiment: Human tumor cell line growth assay (SRB); conditions: Homo sapiens; Colon, HCT-15, 48 h
[14] = Human tumor cell line growth assay (SRB); conditions: human, SF-268 cells (CNS), SF-268, 48 h
SF-268 = experiment: Human tumor cell line growth assay (SRB); conditions: Homo sapiens; CNS, SF-268, 48 h
HOP-92 = experiment: Human tumor cell line growth assay (SRB); conditions: Homo sapiens; NSCLC, HOP-92, 48 h
[15] = Human tumor cell line growth assay (SRB); conditions: human, HOP-92 cells (NSCLC), HOP-92, 48 h
[16] = Human tumor cell line growth assay (SRB); conditions: human, SK-MEL-5 cells (melanoma), SK-MEL-5, 48 h
SK-MEL-5 = experiment: Human tumor cell line growth assay (SRB); conditions: Homo sapiens; Melanoma, SK-MEL-5, 48 h
[17] = read-out: LC50 (the source's name)

Compound: Cc1cc2nc3c4cc(N)ccc4n(CCN(C)C)c3nc2cc1C [JBD-136, 6-(2-(dimethylamino)ethyl)-2,3-dimethyl-6H-indolo [2,3-b]quinoxalin-9-amine]
- GI50 (OVCAR-8): 556 nM
- CC50 (OVCAR-8; [17]): > 100000 nM
- CC50 at 48 h [1]: 54200 nM
- GI50 (U251): 640 nM
- GI50 (HT29): 430 nM
- CC50 at 48 h [2]: > 100000 nM
- LC50 (50% lethal concentration) at 48 h [3]: 83800 nM
- GI50 (SW-620): 389 nM
- CC50 at 48 h [4]: 71900 nM
- GI50 (MOLT-4): 366 nM
- GI50 (NCI/ADR-RES): 506 nM
- CC50 (NCI/ADR-RES; [17]): > 100000 nM
- LC50 (concentration killing 50% of cells) at 48 h [5]: 24800 nM
- GI50 (SNB-75): 1250 nM
- CC50 at 48 h [6]: 11400 nM
- GI50 (SK-MEL-28): 2260 nM
- GI50 (A549/ATCC): 464 nM
- CC50 at 48 h [7]: > 100000 nM
- GI50 (K-562): 426 nM
- CC50 (K-562; [17]): 65600 nM
- CC50 at 48 h [8]: 33000 nM
- GI50 (NCI-H23): 1080 nM
- CC50 at 48 h [9]: 66700 nM
- GI50 (SK-MEL-2): 1630 nM
- GI50 (CCRF-CEM): 862 nM
- CC50 (CCRF-CEM; [17]): 76900 nM
- CC50 at 48 h [10]: > 100000 nM
- GI50 (OVCAR-5): 1240 nM
- GI50 (KM12): 1200 nM
- CC50 at 48 h [11]: 94700 nM
- CC50 at 48 h [12]: 7430 nM
- GI50 (MALME-3M): 1270 nM
- GI50 (A498): 1070 nM
- CC50 (A498; [17]): 5860 nM
- LC50 (concentration killing 50% of cells) at 48 h [13]: > 100000 nM
- GI50 (HCT-15): 528 nM
- LC50 (50% lethal concentration) at 48 h [14]: 42700 nM
- GI50 (SF-268): 1570 nM
- GI50 (HOP-92): 912 nM
- LC50 at 48 h [15]: > 100000 nM
- LC50 (concentration killing 50% of tumour cells) at 48 h [16]: 5720 nM
- GI50 (SK-MEL-5): 1690 nM
